Patent US11753407B2, “Compounds for treating spinal muscular atrophy” (PTC Therapeutics, Inc., priority 2012, dated 2023)

Experiments:
[1] = tested on: SMN2 minigene mRNA (SMN2-A minigene) in HEK293H cells; assay: SMN2 minigene mRNA splicing RT-qPCR assay in cultured cells; type: cell-based, human; conditions: Homo sapiens, HEK293-H; concentration increasing full length SMN2 mRNA 1.5-fold relative to vehicle-treated cells; HEK293H cells with SMN2-A minigene, 24 hours, 7-point concentration data; read-out: EC1.5x for production of full length SMN2 mRNA
How it was run: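 EC1.5× values derive from a 24 h treatment of SMN2-A minigene HEK293H cells and GAPDH-normalized RT-qPCR of exon 7-included minigene mRNA relative to vehicle-treated cells.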

[2] = tested on: Smn protein in SMA patient fibroblast cells (GM03813); assay: Smn protein assay in cultured cells (SMN HTRF); type: cell-based, human; conditions: SMA patient fibroblast cells, 48 hours; for EC1.5x for Smn protein expression: 7-point concentration curve, SMN HTRF, concentration producing 1.5 times Smn protein vs DMSO vehicle control; for maximum fold (Fold) increase of Smn protein: 7-point concentration data, fold relative to vehicle control
How it was run: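 Cells were cultured 72 h, seeded at 5,000/well and dosed with seven concentrations (3.16-fold apart) for 48 h. HTRF on lysates, read at 665 and 620 nm, gave blank-corrected ΔF values relative to DMSO. Potency is reported as EC1.5×, efficacy as maximal fold Smn increase.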

Row | Structure (SMILES) | EC (1.5-fold increase) [1] [µM] | EC1.5x for Smn protein expression [2] | maximum fold (Fold) increase of Smn protein [2]
1 | CCN1CCN(c2ccc3nc(-c4cc(C)c5nc(C)cn5c4)cc(=O)n3c2)CC1 [Compound 819, 2-(2,8-dimethylimidazo[1,2-a]pyridin-6-yl)-7-(4-ethylpiperazin-1-yl)-4H-pyrido[1,2-a]pyrimidin-4-one] | < 0.1 | **** (an EC1.5x≤0.3 μM is indicated by four stars (****)) | ***** (a fold increase >1.65 is indicated by five stars (*****))
2 | Cc1cn2cc(-c3cc(=O)n4cc(N5CCN6CCC[C@H]6C5)ccc4n3)cc(C)c2n1 [Compound 820, 2-(2,8-dimethylimidazo[1,2-a]pyridin-6-yl)-7-[(8aS)-hexahydropyrrolo[1,2-a]pyrazin-2(1H)-yl]-4H-pyrido[1,2-a]pyrimidin-4-one] | < 0.1 | **** (an EC1.5x≤0.3 μM is indicated by four stars (****)) | ***** (a fold increase >1.65 is indicated by five stars (*****))
3 | Cc1cn2cc(-c3cc(=O)n4cc(N5CCN6CCCC6(C)C5)ccc4n3)cc(C)c2n1 (centres unmarked) [Compound 821, 2-(2,8-dimethylimidazo[1,2-a]pyridin-6-yl)-7-(8a-methylhexahydropyrrolo[1,2-a]pyrazin-2(1H)-yl)-4H-pyrido[1,2-a]pyrimidin-4-one] | < 0.1 | **** (an EC1.5x≤0.3 μM is indicated by four stars (****)) | ***** (a fold increase >1.65 is indicated by five stars (*****))
4 | CCc1nc(C)cn2nc(-c3cc(=O)n4cc(N5CC[C@@H](N(C)C)C5)cc(C)c4n3)cc12 [Compound 822, 7-[(3R)-3-(dimethylamino)pyrrolidin-1-yl]-2-(4-ethyl-6-methylpyrazolo[1,5-a]pyrazin-2-yl)-9-methyl-4H-pyrido[1,2-a]pyrimidin-4-one] | 0.1 to 0.3 | *** (an EC1.5× between >0.3 μM and ≤1 μM is indicated by three stars (***)) | **** (a fold increase between >1.5 and ≤1.65 is indicated by four stars (****))
5 | CCc1nc(C)cn2nc(-c3cc(=O)n4cc(NCCN5CCOCC5)ccc4n3)cc12 [Compound 823, 2-(4-ethyl-6-methylpyrazolo[1,5-a]pyrazin-2-yl)-7-{[2-(morpholin-4-yl)ethyl]amino}-4H-pyrido[1,2-a]pyrimidin-4-one] | 3 to 30 | – | ** (a fold increase between >1.2 and ≤1.35 is indicated by two stars (**))
6 | CCc1nc(C)cn2nc(-c3cc(=O)n4cc(NCCN(C)C)ccc4n3)cc12 [Compound 824, 7-{[2-(dimethylamino)ethyl]amino}-2-(4-ethyl-6-methylpyrazolo[1,5-a]pyrazin-2-yl)-4H-pyrido[1,2-a]pyrimidin-4-one] | 0.3 to 1 | * (An EC1.5× for Smn protein expression between >3 μM and ≤10 μM is indicated by one star (*)) | **** (a fold increase between >1.5 and ≤1.65 is indicated by four stars (****))
7 | CCc1nc(C)cn2nc(-c3cc(=O)n4cc(N(C)CCN(C)C)ccc4n3)cc12 [Compound 825, 7-{[2-(dimethylamino)ethyl](methyl)amino}-2-(4-ethyl-6-methylpyrazolo[1,5-a]pyrazin-2-yl)-4H-pyrido[1,2-a]pyrimidin-4-one] | 0.3 to 1 | ** (an EC1.5× between >1 μM and ≤3 μM is indicated by two stars (**)) | ***** (a fold increase >1.65 is indicated by five stars (*****))
8 | CCc1nc(C)cn2nc(-c3cc(=O)n4cc(N(C)CCNC)ccc4n3)cc12 [Compound 826, 2-(4-ethyl-6-methylpyrazolo[1,5-a]pyrazin-2-yl)-7-{methyl[2-(methylamino)ethyl]amino}-4H-pyrido[1,2-a]pyrimidin-4-one] | 0.1 to 0.3 | ** (an EC1.5× between >1 μM and ≤3 μM is indicated by two stars (**)) | ***** (a fold increase >1.65 is indicated by five stars (*****))
9 | Cc1cn2cc(-c3cc(=O)n4cc(N5CC[C@@H](N(C)C)C5)ccc4n3)cc(C)c2n1 [Compound 827, 7-[(3R)-3-(dimethylamino)pyrrolidin-1-yl]-2-(2,8-dimethylimidazo[1,2-a]pyridin-6-yl)-4H-pyrido[1,2-a]pyrimidin-4-one] | < 0.1 | *** (an EC1.5× between >0.3 μM and ≤1 μM is indicated by three stars (***)) | ***** (a fold increase >1.65 is indicated by five stars (*****))
10 | Cc1cn2cc(-c3cc(=O)n4cc(N5CC[C@H](N(C)C)C5)ccc4n3)cc(C)c2n1 [Compound 828, 7-[(3S)-3-(dimethylamino)pyrrolidin-1-yl]-2-(2,8-dimethylimidazo[1,2-a]pyridin-6-yl)-4H-pyrido[1,2-a]pyrimidin-4-one] | < 0.1 | **** (an EC1.5x≤0.3 μM is indicated by four stars (****)) | ***** (a fold increase >1.65 is indicated by five stars (*****))
11 | CCc1nc(C)cn2nc(-c3cc(=O)n4cc(OCCN(C)C)cc(C)c4n3)cc12 [Compound 829, 7-[2-(dimethylamino)ethoxy]-2-(4-ethyl-6-methylpyrazolo[1,5-a]pyrazin-2-yl)-9-methyl-4H-pyrido[1,2-a]pyrimidin-4-one] | 0.1 to 0.3 | ** (an EC1.5× between >1 μM and ≤3 μM is indicated by two stars (**)) | ***** (a fold increase >1.65 is indicated by five stars (*****))
12 | CCc1nc(C)cn2nc(-c3cc(=O)n4cc(OCCN(C)C)ccc4n3)cc12 [Compound 830, 7-[2-(dimethylamino)ethoxy]-2-(4-ethyl-6-methylpyrazolo[1,5-a]pyrazin-2-yl)-4H-pyrido[1,2-a]pyrimidin-4-one] | < 0.1 | *** (an EC1.5× between >0.3 μM and ≤1 μM is indicated by three stars (***)) | ***** (a fold increase >1.65 is indicated by five stars (*****))
13 | CCc1nc(C)cn2nc(-c3cc(=O)n4cc(OCC5CCNCC5)ccc4n3)cc12 [Compound 831, 2-(4-ethyl-6-methylpyrazolo[1,5-a]pyrazin-2-yl)-7-(piperidin-4-ylmethoxy)-4H-pyrido[1,2-a]pyrimidin-4-one] | 0.1 to 0.3 | ** (an EC1.5× between >1 μM and ≤3 μM is indicated by two stars (**)) | **** (a fold increase between >1.5 and ≤1.65 is indicated by four stars (****))
14 | CCc1nc(C)cn2nc(-c3cc(=O)n4cc(OCCN5CCCCC5)ccc4n3)cc12 [Compound 832, 2-(4-ethyl-6-methylpyrazolo[1,5-a]pyrazin-2-yl)-7-[2-(piperidin-1-yl)ethoxy]-4H-pyrido[1,2-a]pyrimidin-4-one] | 0.1 to 0.3 | *** (an EC1.5× between >0.3 μM and ≤1 μM is indicated by three stars (***)) | ***** (a fold increase >1.65 is indicated by five stars (*****))
15 | CCc1nc(C)cn2nc(-c3cc(=O)n4cc(OCCCN5CCOCC5)ccc4n3)cc12 [Compound 833, 2-(4-ethyl-6-methylpyrazolo[1,5-a]pyrazin-2-yl)-7-[3-(morpholin-4-yl)propoxy]-4H-pyrido[1,2-a]pyrimidin-4-one] | < 0.1 | ** (an EC1.5× between >1 μM and ≤3 μM is indicated by two stars (**)) | ***** (a fold increase >1.65 is indicated by five stars (*****))
16 | CCc1nc(C)cn2nc(-c3cc(=O)n4cc(OCCCN(C)C)ccc4n3)cc12 [Compound 834, 7-[3-(dimethylamino)propoxy]-2-(4-ethyl-6-methylpyrazolo[1,5-a]pyrazin-2-yl)-4H-pyrido[1,2-a]pyrimidin-4-one] | < 0.1 | **** (an EC1.5x≤0.3 μM is indicated by four stars (****)) | ***** (a fold increase >1.65 is indicated by five stars (*****))
17 | Cc1cn2nc(-c3cc(=O)n4cc(N5C[C@H]6CN(C)C[C@H]6C5)ccc4n3)cc2c(C)n1 [Compound 835, 2-(4,6-dimethylpyrazolo[1,5-a]pyrazin-2-yl)-7-[(3aR,6aS)-5-methylhexahydropyrrolo[3,4-c]pyrrol-2(1H)-yl]-4H-pyrido[1,2-a]pyrimidin-4-one] | < 0.1 | **** (an EC1.5x≤0.3 μM is indicated by four stars (****)) | ***** (a fold increase >1.65 is indicated by five stars (*****))
